According to the supplement of paper PMC10307832:

How the values were obtained:
Test in all cases: relative viability (nuclei count vs DMSO), 5 days (fraction); higher = more cells survive
[1] = compound: Cc1nc(C(=O)NCC(=O)O)c(O)c2ccc(Oc3ccccc3)cc12 [FG-4592] + O=C(CCCCCCC(=O)Nc1ccccc1)NO [Vorinostat] (partner 1 µM)
Summary of the method: (§1)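 Each reported value is a median over duplicate plates. It expresses relative viability: treated-well nuclei count divided by vehicle-well nuclei count. Lung cancer cell lines in 1536-well plates were dosed by pin tool a day after seeding, alone with one drug or with a fixed anchor-drug dose plus five library-drug doses (not always all listed) in √10 steps, and nuclei were counted after 5 days.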

[2] = compound: Cc1nc(C(=O)NCC(=O)O)c(O)c2ccc(Oc3ccccc3)cc12 [FG-4592] + O=C(c1cc(Cc2n[nH]c(=O)c3ccccc23)ccc1F)N1CCN(C(=O)C2CC2)CC1 [Olaparib] (partner 8 µM)
Summary of the method: as §1

[3] = compound: CC1=CC(=C(N1C2=CC=C(C=C2)Cl)C)C(=O)CN3CCCCC3 [IU1-47] + Nc1ncn([C@H]2C[C@H](O)[C@@H](CO)O2)c(=O)n1 [Decitabine] (partner 2 µM)
Summary of the method: as §1

[4] = compound: Cc1nc(C(=O)NCC(=O)O)c(O)c2ccc(Oc3ccccc3)cc12 [FG-4592] + C[C@]1(O)C[C@@H](c2nc(-c3ccc4ccc(-c5ccccc5)nc4c3)c3c(N)nccn32)C1 [Linsitinib] (partner 1 µM)
Summary of the method: as §1

UMC-11
relative viability ([1]; first compound 0.08 µM): 0.363 | relative viability ([1]; first compound 0.253 µM): 0.333 | relative viability ([1]; first compound 0.8 µM): 0.361 | relative viability ([1]; first compound 2.53 µM): 0.511 | relative viability ([1]; first compound 8 µM): 0.332 | relative viability ([2]; first compound 0.08 µM): 0.286 | relative viability ([2]; first compound 0.253 µM): 0.332 | relative viability ([2]; first compound 0.8 µM): 0.357 | relative viability ([2]; first compound 2.53 µM): 0.341 | relative viability ([2]; first compound 8 µM): 0.348 | relative viability ([3]; first compound 0.08 µM): 0.664 | relative viability ([3]; first compound 0.253 µM): 0.622 | relative viability ([3]; first compound 0.8 µM): 0.571 | relative viability ([3]; first compound 2.53 µM): 0.581 | relative viability ([3]; first compound 8 µM): 0.717 | relative viability ([4]; first compound 0.08 µM): 0.974 | relative viability ([4]; first compound 0.253 µM): 0.93 | relative viability ([4]; first compound 0.8 µM): 0.933 | relative viability ([4]; first compound 2.53 µM): 1.06 | relative viability ([4]; first compound 8 µM): 0.87
